The CheMixHub viscosity set

Experiment: xn = mol fraction of the nth substance listed

CCCCn1cc[n+](C)c1.F[P-](F)(F)(F)(F)F + Cc1ccccc1
Details | viscosity [mPa·s]
310.65 K, 101 kPa, x1 = 0.8 | 31.65

CCc1ccccc1 + Cc1ccccc1
Details | viscosity [mPa·s]
293.15 K, 101.33 kPa, x2 = 0.1809 | 0.652
293.15 K, 101.33 kPa, x2 = 0.3695 | 0.636
293.15 K, 101.33 kPa, x2 = 0.5187 | 0.623
293.15 K, 101.33 kPa, x2 = 0.6606 | 0.611
293.15 K, 101.33 kPa, x2 = 0.8474 | 0.597
298 K, 101 kPa, x2 = 0.1175 | 0.6248
298 K, 101 kPa, x2 = 0.2654 | 0.6174
298 K, 101 kPa, x2 = 0.4661 | 0.6001
298 K, 101 kPa, x2 = 0.5586 | 0.5944
298 K, 101 kPa, x2 = 0.6327 | 0.5864
298 K, 101 kPa, x2 = 0.8164 | 0.5675
298 K, 101 kPa, x2 = 0.9082 | 0.5576
298 K, 101 kPa, x2 = 0.9658 | 0.5598
298.15 K, 101.3 kPa, x2 = 0.1427 | 0.6196
298.15 K, 101.3 kPa, x2 = 0.2444 | 0.609
298.15 K, 101.3 kPa, x2 = 0.3777 | 0.5992
298.15 K, 101.3 kPa, x2 = 0.4928 | 0.5905
298.15 K, 101.3 kPa, x2 = 0.5425 | 0.5867
298.15 K, 101.3 kPa, x2 = 0.6355 | 0.5789
298.15 K, 101.3 kPa, x2 = 0.7353 | 0.5716
298.15 K, 101.3 kPa, x2 = 0.8573 | 0.5614
298.15 K, 101.3 kPa, x2 = 0.9453 | 0.5549
298.15 K, 101.33 kPa, x2 = 0.1308 | 0.623
298.15 K, 101.33 kPa, x2 = 0.2529 | 0.616
298.15 K, 101.33 kPa, x2 = 0.3685 | 0.604
298.15 K, 101.33 kPa, x2 = 0.4784 | 0.592
298.15 K, 101.33 kPa, x2 = 0.6663 | 0.58
298.15 K, 101.33 kPa, x2 = 0.8024 | 0.568
298.15 K, 101.33 kPa, x2 = 0.9209 | 0.56
303.15 K, 101.3 kPa, x2 = 0.0366 | 0.5902
303.15 K, 101.3 kPa, x2 = 0.1427 | 0.5808
303.15 K, 101.3 kPa, x2 = 0.2444 | 0.5729
303.15 K, 101.3 kPa, x2 = 0.3777 | 0.5639
303.15 K, 101.3 kPa, x2 = 0.4928 | 0.5556
303.15 K, 101.3 kPa, x2 = 0.5425 | 0.5522
303.15 K, 101.3 kPa, x2 = 0.6355 | 0.545
303.15 K, 101.3 kPa, x2 = 0.7353 | 0.5371
303.15 K, 101.3 kPa, x2 = 0.8573 | 0.528
303.15 K, 101.3 kPa, x2 = 0.9453 | 0.5223
303.15 K, 101.33 kPa, x2 = 0.1809 | 0.581
303.15 K, 101.33 kPa, x2 = 0.3695 | 0.565
303.15 K, 101.33 kPa, x2 = 0.5187 | 0.554
303.15 K, 101.33 kPa, x2 = 0.6606 | 0.546
303.15 K, 101.33 kPa, x2 = 0.8474 | 0.533
313.15 K, 101.33 kPa, x2 = 0.1809 | 0.52
313.15 K, 101.33 kPa, x2 = 0.3695 | 0.505
313.15 K, 101.33 kPa, x2 = 0.5187 | 0.496
313.15 K, 101.33 kPa, x2 = 0.6606 | 0.49
313.15 K, 101.33 kPa, x2 = 0.8474 | 0.479
323.15 K, 101.33 kPa, x2 = 0.1809 | 0.46
323.15 K, 101.33 kPa, x2 = 0.3695 | 0.459
323.15 K, 101.33 kPa, x2 = 0.5187 | 0.447
323.15 K, 101.33 kPa, x2 = 0.6606 | 0.443
323.15 K, 101.33 kPa, x2 = 0.8474 | 0.43

COC(C)(C)C + Cc1ccccc1
298.15 K, 101 kPa
Details | viscosity [mPa·s]
x1 = 0.05 | 0.541
x1 = 0.1 | 0.528
x1 = 0.2001 | 0.505
x1 = 0.3002 | 0.479
x1 = 0.4001 | 0.458
x1 = 0.5001 | 0.438
x1 = 0.6001 | 0.419
x1 = 0.6998 | 0.398
x1 = 0.8 | 0.383
x1 = 0.8999 | 0.372
x1 = 0.9502 | 0.365
